Results published in article PMC9953468, “In Silico, In Vitro, and Ex Vivo Biological Activity of Some Novel Mebeverine Precursors” (Biomedicines, 2023).
Several values for one entry are separate records, joined by “and”; a condition that tells them apart may be missing. Equal values may be shown once. Entries after “also recorded” stand apart in the source; their conditions may differ. Where a name gives a salt, the structure may show the parent alone. Read-outs that look alike come from different tables or passages of the source. Marks after values point to notes of the source that are not given here.

Tests used:
MTT cell viability assay [1] = type: cell-based, human; conditions: human, ± SD, read-out: In vitro cytotoxicity (IC50)
Protocol: (§1) In order to evaluate the in vitro biocompatibility of the experimental compounds, a series of cell viability assays were performed against human malignant leukemic cell lines (LAMA-84, K-562) as well as normal murine fibroblast cells (CCL-1). All cell lines were purchased from the German Collection of Microorganisms and Cell Cultures (DSMZ GmbH, Braunschweig, Germany). Cell cultures were cultivated in a growth medium RPMI 1640 supplemented with 10% fetal bovine serum (FBS), 5% L-glutamine, and incubated under standard conditions of 37 °C and 5% humidified CO2 atmosphere.
(§2) The experimental design involved a number of cytotoxicity assays that measured cell growth inhibition by the newly synthesized compounds. Cell viability was evaluated using a standard MTT-based colorimetric assay. Exponential-phased cells were harvested and seeded (100 μL/well) in 96-well plates at the appropriate density (3 × 10^5) for the suspension cultures (LAMA-84 and K-562) and 1.5 × 10^5 for the adherent one (CCL-1). Cells were treated and incubated with various concentrations of the experimental compounds in the concentration range of 400-6.25 µM. After exposure time of 72 h, a filter-sterilized MTT substrate solution (5 mg/mL in PBS) was added to each well of the culture plate. A further 1–4 h incubation allowed for the formation of purple insoluble formazan precipitates. The latter were dissolved in isopropyl alcohol solution containing 5% formic acid prior to absorbance measurement at 550 nm using a microplate reader (Labexim LMR-1). Collected absorbance values were blanked against MTT and isopropanol solution and normalized to the mean value of the untreated control (100% cell viability). Semi-logarithmic “dose–response” curves were constructed and the half-inhibitory concentrations of the screened compounds against each tested cell line were calculated. Values of p ≤ 0.05 were considered statistically significant.

[2] = tested on: SM preparations from the corpus gastric muscle; assay: Ex vivo bioelectrical activity of smooth muscle preparations, single sucrose gap method; parameters: species or system Wistar rats; conditions: 5 × 10^−5 M; for Amplitude of slow waves, Measured value / Amplitude of spike potentials, Measured value / Number of slow waves, Measured value / Number of spike potentials, Measured value: 10 min, n = 7, mean ± SEM; for Changes in the membrane potential: base activity taken as 100%, ↑ depolarization, ↓ hyperpolarization; for effect on bioelectrical activity (slow waves, spike potentials): in words
Protocol: Adult male Wistar rats weighing 280–300 g were used. Animals were housed in standard laboratory conditions (23 to 25 °C, 50–55% humidity, 12/12 h light/dark cycle), while food and water were provided ad libitum.
Circular SM preparations were dissected from the corpus gastric muscle (26–28 mm long and 0.8–0.9 mm wide; without mucosa). Two or three muscle strips were taken from the rat stomach. The number of SM preparations used for each data point is indicated by n. After dissection, the tissues must prevent loss of viability, so during the dissection, the tissues were systematically moistened with a solution (NaCl:KCl:CaCl2 in ratio 27.2:1.1:1) prepared at 4 °C.
The BEA of SM preparations was investigated by means of the single sucrose gap method with silver non-polarizable freshly chlorinated electrodes. The muscle strips were divided into 3 zones: two electrode sections were flushed with isotonic KCl solution and Krebs solution (pH 7.3), respectively, and separated by a sucrose layer of high electric resistance. Krebs contained the following (in mM): NaCl 120; KCl 5.9; CaCl2 2.5; MgCl2 1.2; NaH2PO4 1.2; NaHCO3 15.4; glucose 11.5. All the ingredients for this solution were of analytical grade and obtained from Merck (Darmstadt, Germany). Deionized water (18.2 mX/cm^2) was used thoroughly. The KCl solution is similar to the Krebs solution but with an equimolar substitution of NaCl with KCl. An isotonic sucrose solution, due to its very high specific resistance (about 10^6 Ω·cm), provides the best possible separation of the sucrose solution from the physiological solution in the “normal” pool, on the one hand, and the solution providing a zero value of the membrane potential in the pool with another recording electrode.
The inflow rate of each solution (Krebs, KCl, and isotonic sucrose solution) was controlled by a needle valve and continuously aerated with a mixture of 95% O2 and 5% CO2, and the temperature was maintained at 37 °C. A potential difference between the two end sections of the gap (control conditions) was achieved by means of silver non-polarizable, freshly chlorinated electrodes and after a 40-min period of adaptation and stabilization was accepted as the initial (control). The Krebs solution was changed several times during the adaptation period. The viability of the SM preparations was periodically tested by treatment with 1 × 10^−6 M ACh.
The membrane potential value was visualized by means of a Linseis recorder (Selb, Germany). A pair of measuring electrodes is located on both sides of the sucrose sections. The pH (pH 7.3; 37 °C) of the Krebs bathing solution was measured before each experiment by pH-meter HI5521 (Hanna Instruments Inc., Woonsocket, RI, USA). […]
The new substances were dissolved initially in dimethyl sulphoxide (DMSO) to prepare a 5 × 10^−2 M stock solution. Further dilutions were made in distilled deionized water and were applied by adding aliquots of their concentrated solutions to the tissue bath.

MTT cell viability assay [3] = type: cell-based; conditions: mouse, CCL-1 normal fibroblast cells, CCL-1, normal murine fibroblast cells, read-out: In vitro cytotoxicity (IC50)
Protocol: as §1, §2

5-HT3 receptor = assay: Immunohistochemical analysis of 5-HT3 expression in gastric SM strips; parameters: species or system Wistar rats; key to 5-HT3 expression, 5-HT / 5-HT3 expression, Response to Compound: −: absent; +: low; ++: moderate; +++: strong; conditions: for 5-HT3 expression, Response to Compound: SM preparations incubated with the compound; for 5-HT3 expression in SM preparations: immunohistochemical staining after 1 h incubation, in words
Protocol: […] Then, each SM strip was fixed in 10% neutral buffer formalin for 24–48 h and submitted for standard processing with hematoxylin and eosin staining.
The SM fragments from a rat’s gastric wall were fixed in a 10% neutral formalin solution and embedded in paraffin. Paraffin sections of 5 μm thickness were subjected to hematoxylin and eosin (H-E) staining for histochemical analysis.
Sections of the SM fragments from the wall of a rat’s stomach with a thickness of 5 µm were deparaffinized, then subjected to antigenic detection of the epitopes with citrate buffer, and an endogenous peroxidase blockade was made with hydrogen […] 3%, a kit was used to block the endogenous biotin, and a reagent was used to block non-specific binding (Superblock, Scy Tek, Santa Cruz Biotech. Inc. Heidelberg, Germany) follows incubate for 24 h (at 4 °C) with monoclonal mouse anti-5-HT3, next incubated with a secondary antibody: biotinylated anti-rabbit for 10 min at room temperature. The reaction was visualized with 3,3′-diaminobenzidine tetrachloride and counterstained with Mayer’s hematoxylin.
A quantitative and statistical analysis of immunohistochemical reaction using the Olympus DP-Soft image system (version 4.1 for Windows) was carried out on a Microphot-SA (Nikon, Japan) microscope equipped with a Camedia-5050 Z digital camera (Olympus, Japan). The analysis was performed on sections from the SM strips from the stomach of Wistar rats (n = 6 for each group). Five sections of the SM strips were measured, and the percentage of cells expressing 5-HT3 in the circular and longitudinal layer of SM cells, as well as in the myenteric plexus of the stomach, was determined. Each antibody was analyzed for five fields, in each of them the average number of cells with positive unit area response at ×200 magnification.

LAMA-84 = assay: MTT cell viability assay; type: cell-based, human; conditions: LAMA-84, CML in blast crisis (bcr-abl+), 72 h, ± SD
Protocol: as §1, §2

K-562 = assay: MTT cell viability assay; type: cell-based, human; conditions: K-562, Blast phase CML (bcr-abl+), 72 h, ± SD
Protocol: as §1, §2

[4] = tested on: Eighteen tested microorganisms (Gram-positive bacteria, Gram-negative bacteria, yeasts, fungi); assay: Antimicrobial activity, agar well diffusion method, whole panel; type: cell-based; conditions: whole panel of tested microorganisms, in words
Text: Eighteen tested microorganisms including five Gram-positive bacteria (Bacillus subtilis ATCC 6633, Bacillus amyloliquefaciens 4BCL-YT, Staphylococcus aureus ATCC 25923, Listeria monocytogenes NBIMCC 8632, Enterococcus faecalis ATCC 19433), five Gram-negative bacteria (Salmonella enteritidis ATCC 13076, Klebsiella sp.—clinical isolate, Escherichia coli ATCC 25922, Proteus vulgaris ATCC 6380, Pseudomonas aeruginosa ATCC 9027), two yeasts (Candida albicans NBIMCC 74, Saccharomyces cerevisiae ATCC 9763) and six fungi (Aspergillus niger ATCC 1015, Aspergillus flavus, Penicillium sp., Rhizopus sp., Mucor sp.—plant isolates, Fusarium moniliforme ATCC 38932) from the collection of the Department of Microbiology at the University of Food Technologies—Plovdiv, Bulgaria, were selected for the antimicrobial activity test.
The antimicrobial activity of the samples was determined by the agar well diffusion method. The tested bacteria B. subtilis and B. amyloliquefaciens were cultured on LBG agar at 30 °C. The test bacteria S. aureus, L. monocytogenes, E. faecalis, S. enteritidis, Klebsiella sp., E. coli, P. vulgaris and P. aeruginosa were cultured on LBG agar at 37 °C for 24 h. The yeast C. albicans was cultured on MEA at 37 °C, while S. cerevisiae was cultured on MEA at 30 °C for 24 h. The fungi A. niger, A. flavus, Penicillium sp., Rhizopus sp., Mucor sp., and F. moniliforme were grown on MEA at 30 °C for 7 days or until sporulation.
The inocula of the tested bacteria/yeasts were prepared by homogenization of a small amount of biomass in 5 mL of sterile 0.5% NaCl. […] The number of viable cells and fungal spores was determined using a bacterial counting chamber Thoma (Poly-Optik, GmbH, Bad Blankenburg, Germany). […] Next, the inoculated media were transferred in a quantity of 18 mL in sterile Petri plates (d = 90 mm) (Gosselin™, Hazebrouck, France) and allowed to harden. […]
The antimicrobial activity was determined by measuring the diameter of the inhibition zones around the wells on the 24th and 48th h of incubation. […]

[5] = K-562 cells (blast phase chronic myeloid leukemia), K-562, Blast phase CML (bcr-abl+)
[6] = LAMA-84, CML in blast crisis (bcr-abl+)

SMILES | 5-HT3 expression, Response to Compound (5-HT3 receptor) | 5-HT3 expression, 5-HT (5-HT3 receptor; SM preparations incubated with 5-HT, one per compound series) | IC50 at 72 h (MTT cell viability assay [1]; [5]) [µM] | IC50 at 72 h (MTT cell viability assay [1]; [6]) [µM] | Amplitude of slow waves, Measured value [2] [mV] | Amplitude of spike potentials, Measured value [2] | Number of slow waves, Measured value [2] [min⁻¹] | Number of spike potentials, Measured value [2] | Changes in the membrane potential [2] [%] | IC50 at 72 h (MTT cell viability assay [3]) [µM] | 5-HT3 expression in SM preparations (5-HT3 receptor) | effect on bioelectrical activity (slow waves, spike potentials) [2] | In vitro cytotoxicity (IC50) (LAMA-84) | In vitro cytotoxicity (IC50) (K-562) | antimicrobial activity [4]
NCCc1c[nH]c2ccc(O)cc12 [Compound 5-HT, 5-hydroxytryptamine, reference compound] |  | ++ |  |  |  |  |  |  |  |  | higher number of 5-HT3R positive cells per section and 5-HT3 expression observed in the myenteric plexus |  |  |  | 
CCN(CCCCOC(=O)c1ccc(OC)c(OC)c1)C(C)Cc1ccc(OC)cc1 (centres unmarked) [Mebeverine hydrochloride, mebeverine hydrochloride, reference compound] |  |  | 85.4 ± 8.3 | 72 ± 6.2 |  |  |  |  |  | > 300 | weak 5-HT3 expression observed |  | just under the hundred-micromolar range | just under the hundred-micromolar range | did not show any antimicrobial activity

More lines, main results first:

5-HT3 expression, Response to Compound (5-HT3 receptor) | 5-HT3 expression, 5-HT (5-HT3 receptor; SM preparations incubated with 5-HT, one per compound series) | SMILES | IC50 at 72 h (MTT cell viability assay [1]; [5]) [µM] | IC50 at 72 h (MTT cell viability assay [1]; [6]) [µM] | Amplitude of slow waves, Measured value [2] [mV] | Amplitude of spike potentials, Measured value [2] | Number of slow waves, Measured value [2] [min⁻¹] | Number of spike potentials, Measured value [2] | Changes in the membrane potential [2] [%] | IC50 at 72 h (MTT cell viability assay [3]) [µM] | 5-HT3 expression in SM preparations (5-HT3 receptor) | effect on bioelectrical activity (slow waves, spike potentials) [2] | In vitro cytotoxicity (IC50) (LAMA-84) | In vitro cytotoxicity (IC50) (K-562) | antimicrobial activity [4]
+ |  | CC(C)C(Cc1ccccc1)NC(=O)Cc1ccccc1 (centres unmarked) [Compound 4d, N-(3-methyl-1-phenylbutan-2-yl)-2-phenylacetamide] | 244 ± 18.5 | 328 ± 15.9 | 4.97 ± 0.29 | 0 * mV | 4.82 ± 0.24 | 0 * min^−1 | 0 | > 300 | very weak non-specific effect; also recorded: weak 5-HT3 expression observed |  |  |  | 
− |  | CC(C)C(Cc1ccccc1)NC(=O)c1ccccc1Cl (centres unmarked) [Compound 4c, 2-Chloro-N-(3-methyl-1-phenylbutan-2-yl)benzamide] | 367 ± 8.4 | 266 ± 16.8 | 5.34 ± 0.20 | 1.56 ± 0.17 mV | 4.42 ± 0.41 | 26.16 ± 0.26 min⁻¹ | 0 | > 300 | no modulation on the 5-HT3R expression; also recorded: no 5-HT3 expression observed | do not affect the BEA |  |  | 
− |  | CC(C)C(Cc1ccccc1)NC(=O)c1ccccc1 (centres unmarked) [Compound 4b, N-(3-methyl-1-phenylbutan-2-yl)benzamide] | 329 ± 20.4 | 265 ± 20.2 | 5.09 ± 0.10 | 1.40 ± 0.12 mV | 4.50 ± 0.49 | 22.28 ± 0.18 min⁻¹ | 0 | > 300 | no modulation on the 5-HT3R expression; also recorded: no 5-HT3 expression observed | do not affect the BEA |  |  | 
